The subject of data set [1] is Trypanosoma brucei rhodesiense (T.b.r.). As to the kind of experiment: in vitro effectiveness against Trypanosoma brucei rhodesiense. The format is cell-based. The source says: (§1) These compounds can thus be employed as treatments of second-stage human African trypanosomiasis.
The subject of data set [2] is Plasmodium falciparum (P.f.). As to the kind of experiment: in vitro effectiveness against Plasmodium falciparum. The format is cell-based.
From the text: as §1

Data set [3] relates to Trypanosoma brucei rhodesiense (T.b.r.). Kind of data set: in vivo effectiveness against T.b.r. (cures). Particulars: cures / animals treated.
From the text: as §1

The mark [4] stands for this setting: Trypanosoma brucei, RHODESIENSE

Structures can show the parent of a compound that is named as a salt. Where two headings read alike, the source gives them in different places.

In general, IC50 refers to the concentration that inhibits the measured activity by half. The term melting point denotes the temperature of the solid-liquid transition.

Regarding `N#Cc1ccc(-c2cccc(C=O)n2)cc1` [Compound 6, 6-(4-Cyanophenyl)pyridine-2-carbaldehyde], the melting point was 158 to 159 °C. In addition, half-maximal inhibition in data set [1] (setting [4]) (IC50) required 21.7 nM. Moreover, inhibition in data set [2] (Plasmodium falciparum) was half-maximal at 25.5 nM (IC50).
With `N=C(Nc1ccc(-c2ccc(-c3ccc(NC(=N)c4ccccn4)cc3O)o2)c(O)c1)c1ccccn1` [Compound 43, 2,5-Bis[2-hydroxy-4-(2-pyridylimino)amino]furan Dihydrochloride], the IC50 amounted to 32 nM in data set [1] (setting [4]) and 5.1 nM in data set [2] (Plasmodium falciparum).
On to `CCOc1cc(-c2ccc(-c3ccc(NC(=N)N)c(OCC)c3)o2)ccc1NC(=N)N` [Compound 44, 2,5-Bis(3-ethoxy-4-guanidinophenyl)furan dihydrochloride], for which the figures for the IC50 in data set [1] (setting [4]) and in data set [2] (Plasmodium falciparum) were 40 nM and 14.7 nM, respectively.
For `N=C(N)c1ccc(-c2ccc(-c3nc4cc(C(=N)N)ccc4o3)o2)cc1` [Compound 41], the IC50 came to 11 nM in data set [1] (setting [4]) and 32 nM in data set [2] (Plasmodium falciparum). The “In vivo vs. T.b.r. cures” value in data set [3] is given as 4/4.
Take `CSc1cc(-c2ccc(-c3ccc(NC(=N)N)c(SC)c3)o2)ccc1NC(=N)N` [Compound 42, 2,5-Bis(4-guanidino-3-thiomethoxyphenyl)furan Dihydrochloride]: the IC50 in data set [1] (setting [4]) was 57 nM; in data set [2] (Plasmodium falciparum), 66 nM.
Turning to `CC(=O)O.N=C(N)c1ccc(-c2cccc(-c3nc4ccc(C(=N)N)cc4[nH]3)n2)cc1` [Compound 36, 2-(5-Amidinobenzimidazol-2-yl)-6-(4-amidinophenyl)pyridine acetate salt], the figures for the IC50 in data set [1] (setting [4]) and in data set [2] (Plasmodium falciparum) were 24 nM and 9.7 nM, respectively. Besides, in data set [3], the “In vivo vs. T.b.r. cures” value was 1/4.
For `Cc1cc(C(=N)N)ccc1-c1ccc(-c2nc3ccc(C(=N)N)cc3[nH]2)o1` [Compound 45, 2-{2-[5(6)-Amidino]benzimidazolyl}-5-[(4-amidino-2-methyl)-phenyl]-furan trihydochloride], the IC50 worked out at 9.4 nM in data set [1] and 147 nM in data set [2]. Besides, the “In vivo vs. T.b.r. cures” value in data set [3] is 2/4.
Turning to `c1cc(-c2nc3ccc(C4=NCCN4)cc3[nH]2)ccc1CCc1ccc(-c2nc3ccc(C4=NCCN4)cc3[nH]2)cc1` [Compound 24, 4,4′-Bis{2-[-6(2-imidazolino]benzimidazolyl}-1,2-diphenylethanetetrahydrochloride], the IC50 in data set [1] was found to be 393 nM; in data set [2] it was 19.6 nM.

The record behind these values is patent US20070088067A1, “Novel amidine compounds for treating microbial infections” (priority 2003, published 2007).
